According to patent publication US10709707B2, “Methods of treating ocular conditions” (Oyster Point Pharma, Inc., priority 2016, dated 2020):
Values joined by “and” are separate entries in the source; they are usually repeats but may differ in a detail not shown here. Equal entries are not always repeated. “Also recorded” adds a separate entry of the source.

Experiments:
[1] = target: T1, α4β2 nicotinic acetylcholine receptor (Rattus norvegicus, UniProt P09483+P12390); assay: Receptor binding α4β2, inhibition of [3H]-(S)-nicotine binding, rat brain membranes
T1 construct: from tissue; host or cells: rat brain cortical membranes
T1 sequence (P09483 31-630): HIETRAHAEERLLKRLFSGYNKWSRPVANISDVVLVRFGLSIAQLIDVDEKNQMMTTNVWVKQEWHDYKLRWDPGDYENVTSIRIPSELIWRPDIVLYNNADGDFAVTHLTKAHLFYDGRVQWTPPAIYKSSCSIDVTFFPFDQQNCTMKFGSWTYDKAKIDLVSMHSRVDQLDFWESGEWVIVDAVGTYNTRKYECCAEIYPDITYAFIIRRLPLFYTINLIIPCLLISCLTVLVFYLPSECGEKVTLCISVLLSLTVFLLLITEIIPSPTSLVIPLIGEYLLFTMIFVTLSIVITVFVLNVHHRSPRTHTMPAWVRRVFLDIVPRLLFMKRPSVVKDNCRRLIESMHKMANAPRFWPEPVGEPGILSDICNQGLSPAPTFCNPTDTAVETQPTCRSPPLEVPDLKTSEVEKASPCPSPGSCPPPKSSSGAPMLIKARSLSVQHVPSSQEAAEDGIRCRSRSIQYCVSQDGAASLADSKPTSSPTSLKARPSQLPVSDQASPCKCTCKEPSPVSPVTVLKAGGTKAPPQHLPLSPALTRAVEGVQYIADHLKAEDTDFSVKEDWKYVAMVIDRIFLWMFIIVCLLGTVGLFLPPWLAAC
T1 sequence (P12390 25-500): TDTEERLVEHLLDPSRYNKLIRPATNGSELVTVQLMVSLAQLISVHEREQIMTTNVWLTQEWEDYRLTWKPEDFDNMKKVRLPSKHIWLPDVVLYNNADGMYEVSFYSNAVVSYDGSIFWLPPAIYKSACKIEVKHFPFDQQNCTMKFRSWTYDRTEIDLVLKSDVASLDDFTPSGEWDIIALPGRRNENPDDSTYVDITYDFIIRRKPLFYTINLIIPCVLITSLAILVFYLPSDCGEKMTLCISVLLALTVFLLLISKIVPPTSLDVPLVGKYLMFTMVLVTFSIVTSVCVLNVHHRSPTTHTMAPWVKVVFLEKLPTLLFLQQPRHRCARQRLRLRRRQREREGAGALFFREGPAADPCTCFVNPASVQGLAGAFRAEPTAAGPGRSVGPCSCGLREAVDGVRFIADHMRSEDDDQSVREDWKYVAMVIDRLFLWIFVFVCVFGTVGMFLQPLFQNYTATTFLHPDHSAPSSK

[2] = target: T2, ganglionic receptor (α3β4) (Homo sapiens, UniProt P30926+P32297); assay: Receptor binding ganglionic receptor, SH-SY5Y membranes
T2 construct: endogenous in cells
T2 sequence (P32297 32-505): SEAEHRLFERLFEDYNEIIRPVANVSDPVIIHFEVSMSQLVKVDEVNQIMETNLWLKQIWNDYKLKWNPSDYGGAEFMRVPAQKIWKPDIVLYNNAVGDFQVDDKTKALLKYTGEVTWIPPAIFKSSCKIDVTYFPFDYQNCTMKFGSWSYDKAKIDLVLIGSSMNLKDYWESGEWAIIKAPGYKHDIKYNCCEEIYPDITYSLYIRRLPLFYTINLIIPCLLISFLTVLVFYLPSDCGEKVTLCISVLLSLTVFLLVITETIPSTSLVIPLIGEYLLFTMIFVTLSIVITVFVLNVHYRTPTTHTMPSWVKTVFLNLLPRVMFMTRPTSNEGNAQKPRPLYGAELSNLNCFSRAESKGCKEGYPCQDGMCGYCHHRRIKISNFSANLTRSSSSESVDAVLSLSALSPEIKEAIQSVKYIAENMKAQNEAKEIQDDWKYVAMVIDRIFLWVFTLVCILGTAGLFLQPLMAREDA
T2 sequence (P30926 22-498): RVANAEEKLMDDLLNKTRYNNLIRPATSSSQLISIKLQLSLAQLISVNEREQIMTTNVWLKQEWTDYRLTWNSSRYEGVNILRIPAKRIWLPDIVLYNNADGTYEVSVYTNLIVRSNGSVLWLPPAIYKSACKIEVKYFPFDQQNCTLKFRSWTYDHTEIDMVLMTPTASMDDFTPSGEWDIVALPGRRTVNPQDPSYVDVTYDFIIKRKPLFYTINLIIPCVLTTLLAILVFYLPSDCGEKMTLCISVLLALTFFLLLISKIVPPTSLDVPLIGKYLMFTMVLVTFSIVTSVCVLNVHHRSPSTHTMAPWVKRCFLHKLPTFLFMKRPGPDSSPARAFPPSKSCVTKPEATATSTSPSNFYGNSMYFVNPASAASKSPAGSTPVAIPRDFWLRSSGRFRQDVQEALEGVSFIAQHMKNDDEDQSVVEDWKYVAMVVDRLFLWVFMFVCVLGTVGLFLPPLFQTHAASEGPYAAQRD

α4β2 (rat), a4b2*/a6b2* = assay: Receptor function, [3H]-dopamine release from rat striatal synaptosomes; format: biochemical
muscarinic M4 = target: T3, muscarinic M4 (Homo sapiens, UniProt P08173); assay: Follow-up dose response binding assay (CEREP)
T3 construct: CEREP (contract laboratory, per the earlier reading)
T3 sequence (P08173 whole entry): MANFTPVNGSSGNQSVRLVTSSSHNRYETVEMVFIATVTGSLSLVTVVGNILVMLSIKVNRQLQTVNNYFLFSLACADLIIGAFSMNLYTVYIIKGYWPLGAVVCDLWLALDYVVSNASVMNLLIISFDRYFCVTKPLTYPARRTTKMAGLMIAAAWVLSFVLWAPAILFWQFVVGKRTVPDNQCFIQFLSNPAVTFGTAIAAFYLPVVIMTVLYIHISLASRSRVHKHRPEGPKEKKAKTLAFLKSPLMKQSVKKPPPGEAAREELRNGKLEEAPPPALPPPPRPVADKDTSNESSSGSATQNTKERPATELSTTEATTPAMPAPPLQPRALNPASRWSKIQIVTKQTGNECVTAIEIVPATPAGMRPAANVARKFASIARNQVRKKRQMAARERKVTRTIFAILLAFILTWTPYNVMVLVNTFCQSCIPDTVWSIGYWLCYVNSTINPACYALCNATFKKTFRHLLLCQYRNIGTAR

[3] = system: STZ rat model of diabetic neuropathy; assay: Mechanical allodynia, STZ rat model of diabetic neuropathy; format: in vivo, Rat: Sprague-Dawley
[4] = system: general behavior (Irwin profile); assay: CNS safety pharmacology, general behavior (Irwin profile); format: in vivo, Rat: Sprague-Dawley
Rabbit Purkinje fibers = assay: Cardiovascular safety, rabbit Purkinje fibers in vitro
[5] = Single dose pharmacokinetics studies; format: in vivo; conditions: Swiss (mouse), Sprague-Dawley (rat), cynomolgus (monkey), plasma, oral, rat and monkey, read-out: time to reach maximum concentration (Tmax)
Procedure: In a monkey study, [^14C]-Compound 1 was given at 10 mg/kg orally or 5 mg/kg by iv infusion. Oral bioavailability in this study was about 30%.

[6] = 2-week and 13-week repeated dose TK studies, rat; format: in vivo
Procedure: In 2-week and 13-week repeated dose TK studies in rat, animals were dosed orally at 30, 100 or 200 mg/kg/day (2-week study) or at 30, 100 or 300 mg/kg/day (13-week study). […] In the 2-week study, there was a 1.2 to 2.2-fold increase in exposure from Day 1 to 15. In the 13-week study, there was a general increase from Day 1 to 29 and roughly equivalent exposure from Day 29 to 91.

[7] = 2-week and 13-week repeated dose TK studies, monkey; format: in vivo; conditions: for emesis: 100 mg/kg/day
Procedure: In 2-week and 13-week repeated dose TK studies in monkey, animals were dosed orally at 10, 30 or 100 mg/kg/day (2-week study) or at 10, 30 or 60 mg/kg/day (13-week study). […] In the 2-week study, exposure increased roughly proportional to dose from 10 to 30 mg/kg/day on Days 1 and 14 and less than proportionally from 30 to 100 mg/kg/day on Days 1 and 14; emesis in the 100 mg/kg/day dose group, 6/6 animals on Day 1 and 5/6 animals on Day 14, may have contributed to this. There was little accumulation in any dose group from Day 1 to Day 14.

[8] = Clinical studies with oral formulation; format: in vivo
Text: The drug substance for Compound 1 nasal spray was previously used in clinical trials as an oral formulation. […] Compound 1 is re-formulated as a nasal spray.

[9] = binding to red blood cells and blood/plasma ratio; format: in vitro ADME; conditions: broadly species and concentration independent
Procedure: Binding of Compound 1 to red blood cells was 28 to 54% directly after spiking and 41 to 63% at 0.5 and 1 hour after spiking. The blood/plasma ratios ranged from 0.78 to 1.26 and were broadly species and concentration independent.

Ames test = format: cell-based; conditions: in vitro
Text: (§1) Compound 1 was negative for mutagenicity in both in vitro bioassays—including an Ames test, a micronucleus test in mouse lymphoma cells, and a chromosome aberration assay using cultured human peripheral blood lymphocytes—and an in vivo rat bone marrow micronucleus test.

rat bone marrow = assay: in vivo rat bone marrow micronucleus test
Text: as §1

[10] = [3H] DA release, Rat Striatal Synaptosomes
[11] = [3H]-DA release, rat striatal synaptosomes

SMILES: C(=C\[C@H]1CCNC1)/c1cncnc1 [Compound 1, (R)-5-((E)-2-pyrrolidin-3-ylvinyl)pyrimidine]
- Ki ([1]; Rat a4b2, assay and tissue type not given): 34 nM
- Ki ([1]; [3H]-S-nicotine, rat brain cortical membranes): 27 nM
- Ki ([2]; Human ganglion-type (a3b4*), assay and tissue type not given): 8800 nM
- Ki ([2]; [3H]-epibatidine, SH-SY5Y membranes): 600 nM and 620 nM
- DA Release ratio (α4β2 (rat), a4b2*/a6b2*; [10]): 0.55 DA
- EC50 (α4β2 (rat), a4b2*/a6b2*; [10]): 3.9 µM and 3.93 µM
- Emax (α4β2 (rat), a4b2*/a6b2*; [10]): 110 and 114
- EC50 (α4β2 (rat), a4b2*/a6b2*; [11]): 3.93 µM
- Emax (α4β2 (rat), a4b2*/a6b2*; [11]): 114 % of nicotine
- agonist type at the α4β2 subtype (α4β2 (rat), a4b2*/a6b2*; [11]): nM. Compound 1 is a full agonist at the α4β2
- Ki (muscarinic M4): 5.8 µM
- allodynia, acute dosing ([3]; 0.5 and 2 hr post-dosing, Compound 1 0.1 and 1 mg/kg po, Gabapentin 100 mg/kg ip): significantly reversed; also recorded: Acute Dosing - Compound 1 reversed
- onset of action ([3]; animal models of neuropathic pain, compared to gabapentin): 30 min
- allodynia, repeat dosing ([3]; once daily 0.1, 1, 10 mg/kg po, all doses, 6 weeks post-STZ dosing): significantly reversed; also recorded: all dosessignificantly reduced
- dose levels producing reversal of mechanical allodynia ([3]; repeat dosing, 4 weeks post-dosing): 4 weeks post-dosing, no dose
- NOEL, general behavior (Irwin profile) ([4]; 15, 50, 150 mg/kg po): greater than 150 mg/kg.
- effect on general behavior (Irwin profile) ([4]; po, doses up to and including 100 mg/kg): no noteworthy changes; also recorded: Compound 1 had no effect on general
- lengthening of action potential duration (Rabbit Purkinje fibers; 30 μM): 7%
- lengthening of action potential duration (Rabbit Purkinje fibers; 100 μM): 20%
- resting membrane potential, action potential amplitude, Vmax (Rabbit Purkinje fibers; any concentration (3-100 μM)): no effect on resting membrane potential,
- action potential duration (Rabbit Purkinje fibers; at 3 and 10 μM): no effect
- action potential duration (Rabbit Purkinje fibers; at 30 and 100 μM, concentration dependent): dependent lengthening of the action
- Tmax [5]: 0.167 to 2.25 h
- exposure parameters (Cmax and AUC0-24) vs dose ([6]; Days 1 and 15 (2-week), Days 1, 29 and 91 (13-week)): increased roughly in proportion to dose
- Tmax ([6]; both sexes, rat, plasma, oral 30-300 mg/kg/day, 2-week and 13-week studies): 0.5 to 2 h
- exposure in females compared with males ([6]; both studies): generally higher
- emesis ([7]; Day 1, 2-week study): 6/6
- emesis ([7]; Day 14, 2-week study): 5/6
- Tmax ([7]; both sexes, cynomolgus, monkey, in vivo, oral 10-100 mg/kg/day, 2-week and 13-week studies): 0.5 to 6 h
- accumulation ([7]; either study): Little to no accumulation
- gender effect ([7]; either study): no gender effect
- efficacy in clinical studies [8]: failed to reach efficacy endpoints
- safety in clinical studies [8]: considered safe
- blood plasma ratio [9]: 0.78 to 1.26
- mutagenicity, Ames test (Ames test): negative
- mutagenicity, bone marrow micronucleus test (rat bone marrow): negative
